Results taken from paper PMC5839409, “Targeting intracellular B2 receptors using novel cell-penetrating antagonists to arrest growth and induce apoptosis in human triple-negative breast cancer” (Oncotarget, 2018).
Where two headings read alike, the source gives them in different places. Values belong to the compound of their own block, whether it stands above or below them. Square brackets hold non-standard residues; d marks the D form. Ends that are not written are not given here.

Legend:
MDA-MB-231 cells [1] = experiment: MTT cytotoxicity (cell viability) assay; assay type: cell-based, human; conditions: for cytotoxic effect: at a concentration of 100 µM
Procedure: Cell proliferation assay on MDA-MB-231 cells was determined with colorimetric MTT as we described. Briefly, cells were seeded in a 96 wells plate at 2,000 cells/well in DMEM media supplemented with 10% FBS for 24h at 37°C. Cells were then incubated with and without the B2RAs at the indicated concentrations for the time shown. At the end of treatment period, MTT (0.25 mg/ml) was added to the cells and incubated for 1h30 at 37°C. Thereafter, the cell medium was removed, the formazan product solubilized in acidified isopropanol (100 µl of 1N HCl/anhydrous isopropanol 1:25) and the absorbance determined at 570 nm with an ELISA microplate reader (Spectra Max Plus, Molecular Devices, Sunnyvale, CA). For assessing the cytotoxicity of B2RAs and chemotherapeutic agents (carmustine, doxorubicin, carboplatin, temozolomide and paclitaxel), cells were grown to confluency in multi-well plates and exposed to starving media (DMEM without FBS) for 24h before beginning of the antagonist treatment. Cells were then incubated with MTT and treated exactly as described above. Cell viability was expressed as a percentage of optical density (OD) values obtained upon treatment relative to control.

MDA-MB-231 cells [2] = experiment: Anchorage-dependent clonogenic assay; assay type: cell-based, human
Procedure: MDA-MB-231 cells were plated at 200 cells/well in a six-well dish in 2 ml DMEM medium containing 10% FBS. […] After 10 to 14 days, colonies were fixed and stained with 0.5% methylene blue in 50% ethanol. Excess of staining solution was removed carefully with tap water and the plates were dried overnight. Colony counting and densitometric analyses (to measure total colony numbers and surface areas) were performed using the Image Pro Plus 5.1 software.

MDA-MB-231 cells [3] = experiment: Cellular incorporation of B2RAs by LC-MS/MS; conditions: 2.5 µM antagonist, 37°C
Procedure: Permeability of MDA-MB-231 cells to B2RAs was evaluated by either confocal microscopy or LC-MS/MS analyses. […] Mass spectrometry. […] At the end of treatments, cells underwent an acid wash to facilitate the release of surface bound ligands. Cell contents were released from hypotonic lysis using a 40:60 mixture of 15 mM Tris-HCl pH 7.4 / methanol. Cell lysates were next sonicated and subjected to protein precipitation following addition of 0.1% v/v formic acid. Precipitated proteins were removed by centrifugation and supernatants were concentrated using a Speedvac centrifugal evaporator. The sample was subjected to quantification using LC-MS/MS on a triple quadrupole mass spectrometer (Agilent G6410B). A calibration curve made from nine different concentrations of the reference compounds dissolved in suitable HPLC mobile phase solvents, was used to estimate antagonist intracellular content in each sample. The limit of quantification was 75 fmol (1 nM/75 µl).

[4] = Distribution coefficient n-octanol/PBS pH 7.4, shake flask; conditions: pH 7.4
Procedure: Equal volumes of octanol and PBS (137 mM NaCl, 2.7 mM KCl, 10 mM Na2HPO4, 2 mM KH2PO4, pH 7.4), were mixed and allowed to equilibrate for 24h. The layers were then separated and stored at 4°C. At testing, the compounds (200 µM) was added to 200 µl of aqueous phase and mixed with an equal volume of octanol by vortexing for 2 min. The octanol/buffer solution was centrifuged for 5 min at 1000 x g. After separation into aqueous and octanol phases, compound content of the aqueous and octanol phases was quantified by RP-HPLC (Agilent1100 series). […] All octanol/buffer distribution studies were performed in duplicate. The octanol/buffer coefficient was calculated as the ratio of octanol layer to the buffer layer.

MDA-MB-231 cells [5] = experiment: Annexin V/PI apoptosis and beta-galactosidase senescence assays; assay type: cell-based, human; conditions: up to 100 μM, in any of the above assays
Procedure: The effect of B2RAs on cellular senescence was assessed using the Senescence β-Galactosidase Staining Kit (Cell Signaling). MDA-MB-231 cells were plated at 500 000 cells/well in 6-well plates, and serum-starved right before the beginning of treatments. Cells were treated with and without the B2RAs at the indicated concentrations for 72 h. At the end of treatment, surviving cells were fixed with 2% formaldehyde, 0.2% glutaraldehyde for 15 min at room temperature. Fixed cells were then washed and stained with fresh senescence-associated β-galactosidase stain solution (sodium phosphate buffer, pH 6.0, containing 1mg of X-gal (5-bromo-4-chloro-3-indolyl-β-d-galactopyranoside)/ml 40 mM citric acid, 5 mM potassium ferrocyanide, 5 mM potassium ferricyanide, 150 mM NaCl, 2 mM MgCl2) at 37°C. Staining was detected by light microscopy. As a positive control for senescence, we serum starved porcine cerebral microvascular endothelial cells (pCMVEC) (kindly provided by S Chemtob) for 48 h.
MDA-MB-231 and COS-1 cells were plated at 500,000/well in 6-well plates containing medium (10% FBS/DMEM), and allowed to adhere for about 18 h. On the next day, cells were serum-starved and then treated with and without the B2RAs at the indicated concentrations for 24 h. To assess induction of apoptosis due to treatment, we used the Annexin-V-FLUOS Staining kit (Roche) according to manufacturer’s specifications. Briefly, at the end of treatments, cells were harvested, rinsed and incubated in 100 µl of Annexin-V-FLUOS labeling solution (containing 2 µl of Annexin-V-Fluos reagent and 1 µl of PI (15 µg/ml)) for 15 min at room temperature. Cells were analyzed on a FACSCanto II flow cytometer (BD Biosciences). Early stage apoptosis was measured using annexin V-Fluos (RocheMolecular Biochemicals) in conjunction with PI (Sigma) to distinguish among early apoptosis and late apoptosis/necrosis. Bar diagram showing the distribution of early, late/necrotic cell populations.

[6] = Homo sapiens, MDA-MB-231, MTT assay after 72h drug exposure, means ± s.e.m., n = 6 to 8, read-out: IC50 values (cytocidal activity)

Compound: COc1cccc2c1C(=O)c1c(O)c3c(c(O)c1C2=O)C[C@@](O)(C(=O)CO)C[C@@H]3O[C@H]1C[C@H](N)[C@H](O)[C@H](C)O1 [Adriamycin (doxorubicin), doxorubicin]
IC50 (MDA-MB-231 cells [1]; [6]): 2 ± 1 µM

Compound: O=NN(CCCl)C(=O)NCCCl [BCNU (carmustine), carmustine]
IC50 (MDA-MB-231 cells [1]; [6]): 62 ± 1 µM

Compound: N.N.O=C([O-])C1(C(=O)[O-])CCC1.[Pt+2] [Carboplatin]
IC50 (MDA-MB-231 cells [1]; MTT assay after 72h drug exposure, means ± s.e.m., n = 6 to 8, read-out: IC50 values (cytocidal activity)): > 100 µM
cytotoxic effect (MDA-MB-231 cells [1]): did not show significant cytotoxic effect

Compound: C[C@H](CCC(=O)N[C@H](CCCNC(=N)N)C(=O)N[C@@H](CCCNC(=N)N)C(=O)N1CCC[C@H]1C(=O)N1C[C@H](O)C[C@H]1C(=O)NCC(=O)N[C@@H](Cc1cccs1)C(=O)N[C@@H](CO)C(=O)N1Cc2ccccc2C[C@@H]1C(=O)N1[C@H](C(=O)N[C@@H](CCCNC(=N)N)C(=O)O)C[C@@H]2CCCC[C@@H]21)[C@H]1CC[C@H]2[C@@H]3[C@H](O)C[C@@H]4C[C@H](O)CC[C@]4(C)[C@H]3C[C@H](O)[C@]12C [Cholic-HOE 140 (NG134)]
colony formation (antagonist effect) (MDA-MB-231 cells [2]; 1 to 100 µM (FR173657 up to 25 µM), 10-14 days): concentration-responsive clonal repression
IC50 (MDA-MB-231 cells [1]; 72 h): > 100 µM
Cellular incorporation (MDA-MB-231 cells [3]; 15 min): 13 pmol/10^6 cells
Cellular incorporation (MDA-MB-231 cells [3]; 4 h): 22 pmol/10^6 cells

logD [4]: -3.06
Cellular incorporation (MDA-MB-231 cells [3]; 15 min): 0 pmol/10^6 cells
Cellular incorporation (MDA-MB-231 cells [3]; 4 h): 0 pmol/10^6 cells
Cellular incorporation (MDA-MB-231 cells [3]; 24 h): 0 pmol/10^6 cells
Compound: NC(N)=NCCC[C@@H](N)C(=O)N[C@@H](CCCN=C(N)N)C(=O)N1CCC[C@H]1C(=O)N1C[C@H](O)C[C@H]1C(=O)NCC(=O)N[C@@H](Cc1cccs1)C(=O)N[C@@H](CO)C(=O)N1Cc2ccccc2C[C@@H]1C(=O)N1[C@H](C(=O)N[C@@H](CCCN=C(N)N)C(=O)O)C[C@@H]2CCCC[C@@H]21 [HOE 140]
IC50 (MDA-MB-231 cells [1]; 72 h): > 100 µM

Compound: CC(=O)O[C@H]1C(=O)[C@@]2(C)[C@H]([C@H](OC(=O)c3ccccc3)[C@]3(O)C[C@H](OC(=O)[C@H](O)[C@@H](NC(=O)c4ccccc4)c4ccccc4)C(C)=C1C3(C)C)[C@]1(OC(C)=O)CO[C@@H]1C[C@@H]2O [Paclitaxel (Taxol), Paclitaxel]
IC50 (MDA-MB-231 cells [1]; [6]): 10 ± 1 µM

Compound: C[S+]([O-])c1ccc(-c2nc(-c3ccncc3)c(-c3ccc(F)cc3)[nH]2)cc1 (stereo not drawn) [SB203580]
clonogenicity, inhibitor alone (MDA-MB-231 cells [2]; 10 µM, 14 days): had no effect

Compound: Cn1nnc2c(C(N)=O)ncn2c1=O [Temozolomide (Temodar), Temozolomide]
IC50 (MDA-MB-231 cells [1]; [6]): > 100 µM
cytotoxic effect (MDA-MB-231 cells [1]): did not show significant cytotoxic effect

Compound: DTat: vector alone; modified HIV-1 Tat peptide sequence GRKKRRQRRR in D-configuration (G[dR][dK][dK][dR][dR][dQ][dR][dR][dR])
intrinsic activity of vector alone (MDA-MB-231 cells [5]): did not exhibit intrinsic activity
